Data set [1] deals with IRF-Lucia luciferase reporter (ISRE) in THP1-Dual cells. Kind of data set: THP1-Dual IRF-Lucia luciferase reporter assay (ISRE activation). The class given is cell-based, human. The note with it: THP1-Dual. The gist of the method: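 Supernatant luminescence from the ISG54/ISRE-driven Lucia reporter was measured after 24 h exposure to 10 μM compound (LPS 313 ng/mL in control wells).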
On the technique in general: Reporter assays use an easily measured gene product as a stand-in for the process of interest.

Data set [2] can be described thus: THP1-Dual cytotoxicity (Cell Titer Glo, ATP). The format is cell-based, human. As to conditions: human, THP1-Dual cells. The gist of the method:
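CC50, the concentration killing half the cells, was derived from ATP-dependent CellTiter-Glo luminescence. Cells were THP1-Dual (human) and compound was tested as an 8-point dose-response series, with viability read in the same plate.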

The test system of data set [3] is IRF-Lucia luciferase reporter (ISRE) in J774-Dual cells. In words: J774-Dual IRF-Lucia luciferase reporter assay (ISRE activation). The class given is cell-based, mouse. The note with it: J774-Dual. As for the experimental part: First, optimal assay conditions and assay quality in 384-well format were determined. As mentioned, the mouse macrophage J774 cell line (J774-Dual, InvivoGen) stably transfected with the same inducible reporters described above (e.g., IRF-Lucia luciferase and NF-κB-SEAP) was used. The responsiveness of the J774-Dual cell line was investigated in an array of assay conditions to obtain sensitive and reproducible results for the activation of the IRF and NF-κB reporters. An optimal plating density and conditions for these cells was established for these cells in a 384-well format. Assay work-flow is similar to that discussed above for the THP1-Dual assay without a need for cell differentiation. Thus, cells are seeded directly in growth medium and incubated at 37° C. in a 5% C02 incubator for 24 hours prior to the programmed treatments being added as described herein.
The primary high throughput screen used the HTS platform of human THP1 monocyte cells containing the IRF-Lucia luciferase and NFκB-SEAP (secreted embryonic alkaline phosphatase) dual reporter (THP1-Dual, Invivogen), enabling the simultaneous study of the IRF and NFκB signaling pathways respectively. As discussed, the Lucia luciferase reporter gene is under the control of an ISG54 (interferon-stimulated gene) minimal promoter in conjunction with five interferon-stimulated response elements (ISRE). The SEAP gene is driven by an IFNβ minimal promoter fused to five copies of the NFκB consensus transcriptional response element and three copies of the c-Rel binding site. Both IRF-Lucia luciferase and NFκB-SEAP reporter proteins are secreted and readily measurable in the cell culture supernatant when using QUANTI-Luc™ and QUANTI-Blue™ detection reagents, respectively. Identified “hits” were confirmed in a secondary screen with an 8-point dose response curve. Hits were further screened for activity in the mouse using the mouse J774 macrophage-like cell line containing the identical reporter constructs (J774-Dual, Invivogen).
The OTRADI Small Molecule Library of approximately 246,000 diverse compounds (see below for description) was screened using the THP1-Dual based HTS platform described above. All transfer steps in the screen are fully automated, thus reducing variability. Primary screening included a single data point or dose for each molecule. After data normalization was applied for each assay run, “hit” selection was performed on the plates that pass the quality control (QC) criterion. Hits were defined as samples having values above the activity cutoff determined based on noise level of the assay to reduce false positive rates. In the pilot study discussed above this activity value was >3σ above the ISRE mean with the added criteria of NFκB activation being lower than […] from the mean to identify IRF selective compounds. The ratio of ISRE:NFκB activity was also calculated as a selectivity index for prioritizing hit selection. Primary hits underwent secondary screening to determine the 50% effective concentration (EC50) and 50% cytotoxic concentration (CC50) of these agents using an 8-point dose-response curve in the human THP1-Dual cells. Cytotoxicity was measured in the plate using Cell Titer Glo (Promega). Identified candidate compounds were further screened (orthogonal screen) for cross species activity in the validated mouse J774-Dual assay using an 8-point dose-response format to determine EC50 and CC50 values as well as ISRE:NFκB ratios. A general process flow for the experimental design laid out above is depicted at FIG. 12.

The subject of another data set is SH-SY5Y cells. Kind of data set: Gene induction in SH-SY5Y cells (qtPCR). The format is cell-based, human. The note with it: 20 μM, 3 hours, preliminary results. As for the experimental part:
FIG. 11 is a bar graph showing that the human-specific IRF activator AV-C induces robust IFIT1 and RSAD2 expression, with no increase in TNF expression. SH-SY5Y cells were treated with 20 μM AV-C for 3 hours. RNA was collected from cell pellets and qtPCR was performed with indicated primers. Values at FIG. 11 are normalized to actin and presented as fold change over vehicle control.
To determine if the human specific IRF activator, AV-C could induce IRF activated genes, the human neuroblastoma cell line SH-SY5Y was stimulated with 20 μM AV-C for 3 hours. […] Specifically, as mentioned, SH-SY5Y cells were treated with 20 μM AV-C for 3 hours. RNA was collected from cell pellets and qtPCR was performed with indicated primers. Values at FIG. 11 are normalized to actin and presented as fold change over vehicle control.

One may read the EC50 as the concentration giving half of the maximal effect. By CC50 is commonly meant the concentration that lowers cell viability or growth by half.

With `CC(C)c1nnc(N2C(=O)c3oc4ccccc4c(=O)c3C2c2ccccc2F)s1` (stereo not drawn) [AV-C, 1-(2-fluorophenyl)-2-(5-isopropyl-1,3,4-thiadiazol-2-yl)-1,2-dihydrochromeno[2,3-c]pyrrole-3,9-dione, reference compound], in data set [1] (Homo sapiens, THP1-Dual control compound, 8-point dose response, read-out: EC50 ISRE activation), the EC50 worked out at 5.3 µM. Moreover, the “ISRE response, % of LPS maximum” value in data set [1] (25 μM) worked out at 75%. Besides, in data set [1] (at its EC50), the “IRF signal intensity relative to LPS control” value is roughly 10%. The CC50 in data set [2] (THP1-Dual control compound, 8-point dose response, read-out: CC50) worked out at 7.9 µM. Also, in data set [2] (read-out: Selectivity Index (CC50/EC50) (text: toxicity index)), the selectivity ratio came out at 1.5. Moreover, the “IRF activation in mouse cells” value in data set [3] is “minimal IRF activation”. Besides, the “ISRE response, % of LPS maximum” value in data set [3] (25 μM) was determined as 10%. Moreover, in the data set with SH-SY5Y cells, the “IFIT1 and RSAD2 expression” value is “increased”; the TNF expression result is given as “no increase”.

These data come from patent publication US20220395500A1, “SMALL MOLECULE ACTIVATORS OF INTERFERON REGULATORY FACTOR 3 AND METHODS OF USE THEREOF” (Neuralexo, Inc., priority 2020, published 2022).
